From patent US10030012B2, “Piperidin-1-yl and azepin-1-yl carboxylates as muscarinic M4 receptor agonists” (Heptares Therapeutics Limited, priority 2013, dated 2018)
pEC50: −log10 of the molar value.

Experiments:
[1] = molecular target: human M4 receptor (Homo sapiens (Human), UniProt P08173); assay: In vitro M4 functional assay (intracellular calcium, FLiPR Tetra); type: cell-based; conditions: for pEC50: CHOK1 cells stably expressing human M4 receptor and Gα16, calcium flux; for Emax: relative efficacy to an EC100 concentration of acetylcholine, read-out: M4 % RE
In short: (§1)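 CHOK1 cells stably expressing human M4 or M2 with Gα16, loaded with Calcium 5 dye 45 min at 37° C in HBSS/HEPES/BSA/probenecid pH 7.4. Fluorescence read 5 min after compound; EC50 from ten-point half-log curves, duplicate wells, four-parameter fit; efficacy relative to EC100 acetylcholine.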

[2] = molecular target: human M2 receptor (Homo sapiens (Human), UniProt P08172); assay: In vitro M2 functional assay (intracellular calcium, FLiPR Tetra); type: cell-based; conditions: for M2 EC50 / pEC50: CHOK1 cells stably expressing human M2 receptor and Gα16, calcium flux, No Response = no significant response of calcium flux indicative of agonism; for M2 % RE: relative efficacy to an EC100 concentration of acetylcholine
In short: as §1

Sequence of human M2 receptor (P08172 whole entry): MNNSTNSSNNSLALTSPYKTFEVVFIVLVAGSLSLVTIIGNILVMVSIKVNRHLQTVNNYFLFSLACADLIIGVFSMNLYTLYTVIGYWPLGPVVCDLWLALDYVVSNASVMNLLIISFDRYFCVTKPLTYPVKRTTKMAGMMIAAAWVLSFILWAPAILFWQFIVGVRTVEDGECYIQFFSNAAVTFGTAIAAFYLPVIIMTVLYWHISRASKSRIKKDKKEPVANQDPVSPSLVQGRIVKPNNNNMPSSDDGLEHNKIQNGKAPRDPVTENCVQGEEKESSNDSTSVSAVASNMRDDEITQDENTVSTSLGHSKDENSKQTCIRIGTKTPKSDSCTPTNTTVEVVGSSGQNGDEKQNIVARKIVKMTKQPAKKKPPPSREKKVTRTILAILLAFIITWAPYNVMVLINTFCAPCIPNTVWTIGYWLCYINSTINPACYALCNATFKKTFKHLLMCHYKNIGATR
Sequence of human M4 receptor (P08173 whole entry): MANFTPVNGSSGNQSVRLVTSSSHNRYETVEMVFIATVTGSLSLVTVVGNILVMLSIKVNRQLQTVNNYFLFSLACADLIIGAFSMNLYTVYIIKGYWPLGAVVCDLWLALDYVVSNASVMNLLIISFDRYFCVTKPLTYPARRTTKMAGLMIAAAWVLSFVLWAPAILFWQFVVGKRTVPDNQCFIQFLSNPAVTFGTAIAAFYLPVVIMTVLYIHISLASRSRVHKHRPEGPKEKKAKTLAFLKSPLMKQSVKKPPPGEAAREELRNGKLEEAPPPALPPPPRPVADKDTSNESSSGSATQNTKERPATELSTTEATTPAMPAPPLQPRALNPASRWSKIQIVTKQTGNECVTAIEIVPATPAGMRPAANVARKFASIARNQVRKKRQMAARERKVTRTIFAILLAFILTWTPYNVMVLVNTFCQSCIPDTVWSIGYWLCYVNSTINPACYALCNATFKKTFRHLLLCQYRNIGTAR

Row | pEC50 [1] | Emax [1] | M2 EC50 [2] | pEC50 [2] | M2 % RE [2] | SMILES
1 | 6.92 | 84% | No Response |  |  | CCOC(=O)N1CCCC(N2CCC(c3cccnc3C3CC3)CC2)CC1 (centres unmarked) [Example 66, Ethyl 4-[4-(2-cyclopropylpyridin-3-yl)piperidin-1-yl]azepane-1-carboxylate]
2 | 5.76 | 44% | No Response |  |  | CCOC(=O)N1CCCC(N2CCC(c3nccn3CC)CC2)CC1 (centres unmarked) [Example 10, Ethyl 4-[4-(1-ethyl-1H-imidazol-2-yl)piperidin-1-yl]azepane-1-carboxylate]
3 | 5.63 | 24% | No Response |  |  | CCOC(=O)N1CCCC(N2CCC(c3cccn(CC#N)c3=O)CC2)CC1 (centres unmarked) [Example 56, Ethyl 4-{4-[1-(cyanomethyl)-2-oxo-1,2-dihydropyridin-3-yl]piperidin-1-yl}azepane-1-carboxylate]
4 | 7.52 | 92% |  | 6.80 | 75% | CCOC(=O)N1CCCC(N2CCC(c3ncccc3OC)CC2)CC1 (centres unmarked) [Example 38, Ethyl 4-[4-(3-methoxypyridin-2-yl)piperidin-1-yl]azepane-1-carboxylate]
5 | 6.05 | 37% | No Response |  |  | CCOC(=O)N1CCCC(N2CCC(c3cccn(CC)c3=O)CC2)CC1 (centres unmarked) [Example 57, Ethyl 4-[4-(1-ethyl-2-oxo-1,2-dihydropyridin-3-yl)piperidin-1-yl]azepane-1-carboxylate]
6 | 6.72 | 77% |  | 5.65 | 37% | CCOC(=O)N1CCCC(N2CCC(n3nccc3C3CC3)CC2)CC1 (centres unmarked) [Example 20, Ethyl 4-[4-(5-cyclopropyl-1H-pyrazol-1-yl)piperidin-1-yl]azepane-1-carboxylate]
7 | 5.86 | 45% | No Response |  |  | CCOC(=O)N1CCCC(N2CCC(n3nccc3C(=O)NCC3CC3)CC2)CC1 (centres unmarked) [Example 24, Ethyl 4-(4-{5-[(cyclopropylmethyl)carbamoyl]-1H-pyrazol-1-yl}piperidin-1-yl)azepane-1-carboxylate]
8 | 5.74 | 29% | No Response |  |  | CCOC(=O)N1CCC(CN2CC(n3cccn3)C2)CC1 [Example 29, Ethyl 4-{[3-(1H-pyrazol-1-yl)azetidin-1-yl]methyl}piperidine-1-carboxylate]
